Molecular target: wild type c-kit (Homo sapiens (Human), UniProt P10721)
Assay: PathScan phospho c-kit (Tyr719) sandwich ELISA in SCF-stimulated M-07e cells (pKIT assay)
Format: cell-based
Details: ELISA assay (values not marked *)
Summary of the method: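 Tyr719-phosphorylated c-kit was measured by colorimetric (TMB) sandwich ELISA in lysates of M-07e cells. Cells were starved 4 h without serum or GM-CSF, dosed 60 min at 37 °C with compound (8 points, duplicate, 0.25% DMSO), and stimulated 10 min with human SCF (500 ng/mL as added). IC50 values came from 4-parameter logistic regression.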

Sequence of wild type c-kit (P10721 26-976): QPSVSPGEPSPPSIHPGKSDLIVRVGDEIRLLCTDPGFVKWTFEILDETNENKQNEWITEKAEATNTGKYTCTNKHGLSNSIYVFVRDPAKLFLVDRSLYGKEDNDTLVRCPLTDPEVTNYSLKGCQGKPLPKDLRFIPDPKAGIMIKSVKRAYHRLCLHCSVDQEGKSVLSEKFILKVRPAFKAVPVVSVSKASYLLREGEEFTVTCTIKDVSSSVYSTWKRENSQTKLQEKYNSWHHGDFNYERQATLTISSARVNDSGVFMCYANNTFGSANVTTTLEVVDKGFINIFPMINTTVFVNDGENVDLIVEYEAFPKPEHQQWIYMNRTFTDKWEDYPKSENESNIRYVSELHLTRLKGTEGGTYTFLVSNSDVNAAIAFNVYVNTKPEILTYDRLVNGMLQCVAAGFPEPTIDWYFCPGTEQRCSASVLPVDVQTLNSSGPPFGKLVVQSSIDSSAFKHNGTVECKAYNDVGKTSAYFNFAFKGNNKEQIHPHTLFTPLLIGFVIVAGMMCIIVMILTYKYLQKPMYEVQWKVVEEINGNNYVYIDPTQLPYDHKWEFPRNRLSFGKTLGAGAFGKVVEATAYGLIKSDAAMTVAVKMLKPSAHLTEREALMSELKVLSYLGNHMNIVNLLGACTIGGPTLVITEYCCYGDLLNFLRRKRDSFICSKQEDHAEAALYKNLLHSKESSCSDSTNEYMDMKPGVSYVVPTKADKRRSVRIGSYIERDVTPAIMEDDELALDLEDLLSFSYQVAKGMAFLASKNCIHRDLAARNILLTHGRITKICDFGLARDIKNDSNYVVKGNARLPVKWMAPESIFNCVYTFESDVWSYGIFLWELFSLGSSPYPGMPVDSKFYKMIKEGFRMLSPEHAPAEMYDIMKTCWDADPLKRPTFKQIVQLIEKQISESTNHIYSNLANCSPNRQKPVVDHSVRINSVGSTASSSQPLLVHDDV

SMILES	IC50
[2H]C([2H])([2H])N1CCN(c2ccn3ncc(C(=O)Nc4cc(-n5ncc(C6CN(C(=O)OC)C6)n5)ccc4C)c3c2)CC1 [Example 82, methyl 3-(2-(4-methyl-3-(5-(4-(methyl-d3)piperazin-1-yl)pyrazolo[1,5-a]pyridine-3-carboxamido)phenyl)-2H-1,2,3-triazol-4-yl)azetidine-1-carboxylate]	23.4 nM
Cc1ccc(-c2nnn(C3CC3)n2)cc1NC(=O)c1cnn2ccc(-c3cnn(CC(C)(C)O)c3)cc12 [Example 242, N-(5-(2-cyclopropyl-2H-tetrazol-5-yl)-2-methylphenyl)-5-(1-(2-hydroxy-2-methylpropyl)-1H-pyrazol-4-yl)pyrazolo[1,5-a]pyridine-3-carboxamide]	0.5 nM
Cc1ccc(-c2nnn(C3CC3)n2)cc1NC(=O)c1cnn2ccc(-c3cn([C@H](C)[C@H](C)O)nc3C)cc12 (single isomer, unassigned) [Example 269, N-(5-(2-cyclopropyl-2H-tetrazol-5-yl)-2-methylphenyl)-5-(1-((2R,3S)-3-hydroxybutan-2-yl)-3-methyl-1H-pyrazol-4-yl)pyrazolo[1,5-a]pyridine-3-carboxamide or N-(5-(2-cyclopropyl-2H-tetrazol-5-yl)-2-methylphenyl)-5-(1-((2S,3R)-3-hydroxybutan-2-yl)-3-methyl-1H-pyrazol-4-yl)pyrazolo[1,5-a]pyridine-3-carboxamide]	0.3 nM
O=C(Nc1cc(-c2nnn(C3CN(CC(F)(F)F)C3)n2)ccc1Cl)c1cnn2ccccc12 [Example 195, N-(2-chloro-5-(2-(1-(2,2,2-trifluoroethyl)azetidin-3-yl)-2H-tetrazol-5-yl)phenyl)pyrazolo[1,5-a]pyridine-3-carboxamide]	8.7 nM
O=C(Nc1cc(-c2nnn(C3CC(F)(F)C3)n2)c(C2CC2)cc1Cl)c1cnn2ccc(N3CCOCC3)cc12 [Example 117, N-(2-chloro-4-cyclopropyl-5-(2-(3,3-difluorocyclobutyl)-2H-tetrazol-5-yl)phenyl)-5-morpholinopyrazolo[1,5-a]pyridine-3-carboxamide]	52.7 nM
Cc1cc(F)c(-c2nnn(C3CC3)n2)cc1NC(=O)c1cnn2ccc(-c3cn(C[C@@H](O)C(C)(C)O)nc3C3CC3)cc12 [Example 259, (R)-5-(3-cyclopropyl-1-(2,3-dihydroxy-3-methylbutyl)-1H-pyrazol-4-yl)-N-(5-(2-cyclopropyl-2H-tetrazol-5-yl)-4-fluoro-2-methylphenyl)pyrazolo[1,5-a]pyridine-3-carboxamide]	0.4 nM
CNc1ccn2ncc(C(=O)Nc3cc(-n4ncc(C5CN(C(=O)OC)C5)n4)ccc3C)c2c1 [Example 138, methyl 3-(2-(4-methyl-3-(5-(methylamino)pyrazolo[1,5-a]pyridine-3-carboxamido)phenyl)-2H-1,2,3-triazol-4-yl)azetidine-1-carboxylate]	13.4 nM
COCC(C)Nc1ccn2ncc(C(=O)Nc3cc(-c4nnn(C5CN(C(=O)OC)C5)n4)ccc3C)c2c1 (stereo in doubt) [Example 128, methyl (S)-3-(5-(3-(5-((1-methoxypropan-2-yl)amino)pyrazolo[1,5-a]pyridine-3-carboxamido)-4-methylphenyl)-2H-tetrazol-2-yl)azetidine-1-carboxylate]	47.4 nM
Cc1ccc(-c2nnn(C3CN(S(C)(=O)=O)C3)n2)cc1NC(=O)c1cnn2ccc(CCC(C)(C)O)cc12 [Example 155, 5-(3-hydroxy-3-methylbutyl)-N-(2-methyl-5-(2-(1-(methylsulfonyl)azetidin-3-yl)-2H-tetrazol-5-yl)phenyl)pyrazolo[1,5-a]pyridine-3-carboxamide]	55.9 nM
O=C(Nc1cc(-c2nnn(C3CC(F)(F)C3)n2)ccc1Cl)c1cnn2ccccc12 [Example 17, N-(2-chloro-5-(2-(3,3-difluorocyclobutyl)-2H-tetrazol-5-yl)phenyl)pyrazolo[1,5-a]pyridine-3-carboxamide]	6.5 nM
Cc1cc(C)c(-c2nnn(CC34COC(C3)C4)n2)cc1NC(=O)c1cnn2ccccc12 [Example 20, N-(5-(2-((2-oxabicyclo[2.1.1]hexan-4-yl)methyl)-2H-tetrazol-5-yl)-2,4-dimethylphenyl)pyrazolo[1,5-a]pyridine-3-carboxamide]	50.9 nM
COCCOC[C@@H](O)Cn1cc(-c2ccn3ncc(C(=O)Nc4cc(-c5nnn(C6CC6)n5)c(F)cc4Cl)c3c2)c(C)n1 [Example 285, (S)—N-(2-chloro-5-(2-cyclopropyl-2H-tetrazol-5-yl)-4-fluorophenyl)-5-(1-(2-hydroxy-3-(2-methoxyethoxy)propyl)-3-methyl-1H-pyrazol-4-yl)pyrazolo[1,5-a]pyridine-3-carboxamide]	1 nM
CCn1nnc(-c2cc(NC(=O)c3cnn4ccc(-c5cn(C[C@H](O)COC)nc5C)cc34)c(Cl)cc2F)n1 [Example 282, (S)—N-(2-chloro-5-(2-ethyl-2H-tetrazol-5-yl)-4-fluorophenyl)-5-(1-(2-hydroxy-3-methoxypropyl)-3-methyl-1H-pyrazol-4-yl)pyrazolo[1,5-a]pyridine-3-carboxamide]	0.2 nM
Cc1ccc(-c2nnn(CC3CC3)n2)cc1NC(=O)c1cnn2ccccc12 [Example 7, N-(5-(2-(cyclopropylmethyl)-2H-tetrazol-5-yl)-2-methylphenyl)pyrazolo[1,5-a]pyridine-3-carboxamide]	13.6 nM
Cc1nnn(-c2ccc(C)c(NC(=O)c3cnn4ccc(-c5c(C)nn(CC(C)(C)O)c5C)cc34)c2)n1 [Example 244, 5-(1-(2-hydroxy-2-methylpropyl)-3,5-dimethyl-1H-pyrazol-4-yl)-N-(2-methyl-5-(5-methyl-2H-tetrazol-2-yl)phenyl)pyrazolo[1,5-a]pyridine-3-carboxamide]	0.4 nM
Cc1ccc(-n2ncc(C3CC(F)(F)C3)n2)cc1NC(=O)c1cnn2ccccc12 [Example 161, N-(5-(4-(3,3-difluorocyclobutyl)-2H-1,2,3-triazol-2-yl)-2-methylphenyl)pyrazolo[1,5-a]pyridine-3-carboxamide]	9 nM
Cc1cc(C)c(-c2nnn(CCC(C)(O)C(F)(F)F)n2)cc1NC(=O)c1cnn2ccccc12 (stereo not drawn) [Example 36, N-(2,4-dimethyl-5-(2-(4,4,4-trifluoro-3-hydroxy-3-methylbutyl)-2H-tetrazol-5-yl)phenyl)pyrazolo[1,5-a]pyridine-3-carboxamide]	8.5 nM
Cc1cc(F)c(-c2nnn(C3CC(F)(F)C3)n2)cc1NC(=O)c1cnn2ccc(N3CCOCC3)cc12 [Example 59, N-(5-(2-(3,3-difluorocyclobutyl)-2H-tetrazol-5-yl)-4-fluoro-2-methylphenyl)-5-morpholinopyrazolo[1,5-a]pyridine-3-carboxamide]	4.5 nM
COC(=O)N1CC(n2nnc(-c3ccc(C)c(NC(=O)c4cnn5ccc(N6CCN(CC(F)F)CC6)cc45)c3)n2)C1 [Example 73, methyl 3-(5-(3-(5-(4-(2,2-difluoroethyl)piperazin-1-yl)pyrazolo[1,5-a]pyridine-3-carboxamido)-4-methylphenyl)-2H-tetrazol-2-yl)azetidine-1-carboxylate]	46.6 nM
Cc1ccc(-c2nnn(CCOC(C)C)n2)cc1NC(=O)c1cnn2ccccc12 [Example 11, N-(5-(2-(2-isopropoxyethyl)-2H-tetrazol-5-yl)-2-methylphenyl)pyrazolo[1,5-a]pyridine-3-carboxamide]	2.5 nM
Cc1nn([C@@H](C)[C@H](C)O)cc1-c1ccn2ncc(C(=O)Nc3cc(-c4nnn(C5CC5)n4)c(F)cc3Cl)c2c1 (single isomer, unassigned) [Example 288, N-(2-chloro-5-(2-cyclopropyl-2H-tetrazol-5-yl)-4-fluorophenyl)-5-(1-((2S,3S)-3-hydroxybutan-2-yl)-3-methyl-1H-pyrazol-4-yl)pyrazolo[1,5-a]pyridine-3-carboxamide or N-(2-chloro-5-(2-cyclopropyl-2H-tetrazol-5-yl)-4-fluorophenyl)-5-(1-((2R,3R)-3-hydroxybutan-2-yl)-3-methyl-1H-pyrazol-4-yl)pyrazolo[1,5-a]pyridine-3-carboxamide]	0.4 nM
Cc1ccc(-c2nnn(C3CC3)n2)cc1NC(=O)c1cnn2ccc(-c3cnn(C[C@H]4CNCCO4)c3)cc12 [Example 229, (R)-N-(5-(2-cyclopropyl-2H-tetrazol-5-yl)-2-methylphenyl)-5-(1-(morpholin-2-ylmethyl)-1H-pyrazol-4-yl)pyrazolo[1,5-a]pyridine-3-carboxamide]	0.7 nM
COCCNc1ccn2ncc(C(=O)Nc3cc(-c4nnn(C)n4)ccc3C)c2c1 [Example 87, 5-((2-methoxyethyl)amino)-N-(2-methyl-5-(2-methyl-2H-tetrazol-5-yl)phenyl)pyrazolo[1,5-a]pyridine-3-carboxamide]	34.5 nM
Cc1ccc(-c2nnn(CC3CC4(CCC4)CO3)n2)cc1NC(=O)c1cnn2ccccc12 (stereo not drawn) [Example 9, N-(5-(2-((6-oxaspiro[3.4]octan-7-yl)methyl)-2H-tetrazol-5-yl)-2-methylphenyl)pyrazolo[1,5-a]pyridine-3-carboxamide]	4.8 nM
Cc1nn(CC(C)(C)O)cc1-c1ccn2ncc(C(=O)Nc3cc(-c4nnn(C5CC5)n4)ccc3Cl)c2c1 [Example 250, N-(2-chloro-5-(2-cyclopropyl-2H-tetrazol-5-yl)phenyl)-5-(1-(2-hydroxy-2-methylpropyl)-3-methyl-1H-pyrazol-4-yl)pyrazolo[1,5-a]pyridine-3-carboxamide]	0.4 nM
Nc1ccn2ncc(C(=O)Nc3cc(-c4nnn(CC5CC5(F)F)n4)ccc3Cl)c2c1 (stereo not drawn) [Example 27, 5-amino-N-(2-chloro-5-(2-((2,2-difluorocyclopropyl)methyl)-2H-tetrazol-5-yl)phenyl)pyrazolo[1,5-a]pyridine-3-carboxamide]	19.3 nM
CCn1nnc(-c2cc(NC(=O)c3cnn4ccc(-c5cn(C[C@H](O)COCCOC)nc5C)cc34)c(Cl)cc2F)n1 [Example 283, (S)—N-(2-chloro-5-(2-ethyl-2H-tetrazol-5-yl)-4-fluorophenyl)-5-(1-(2-hydroxy-3-(2-methoxyethoxy)propyl)-3-methyl-1H-pyrazol-4-yl)pyrazolo[1,5-a]pyridine-3-carboxamide]	0.7 nM

— US20240262826A1, “WILD TYPE KIT INHIBITORS” (Blueprint Medicines Corporation, priority 2022, published 2024)
